Test results from the NIST ThermoML archive (doi:10.1016/j.jct.2010.12.021).
“And” between values parts separate entries of the source, which are not always exact repeats. Equal values may be shown once. ± gives the expanded uncertainty stated by the source.

Test: molar heat capacity at constant pressure
Details: 101.33 kPa, Crystal, Small sample (50 mg) DSC

CCCCCC[n+]1cccc2ccccc21.O=S(=O)([N-]S(=O)(=O)C(F)(F)F)C(F)(F)F [1-hexylquinolinium bis(trifluoromethylsulfonyl)amide]
molar heat capacity at constant pressure (203.04 K): 300.57 ± 30 J/K/mol [middle of 4 runs]
molar heat capacity at constant pressure (203.05 K): 300.39 ± 30 J/K/mol and 306.52 ± 31 J/K/mol
molar heat capacity at constant pressure (203.06 K): 305.88 ± 31 J/K/mol
molar heat capacity at constant pressure (203.08 K): 302.69 ± 31 J/K/mol
molar heat capacity at constant pressure (203.13 K): 298.95 ± 30 J/K/mol
molar heat capacity at constant pressure (203.21 K): 298.13 ± 30 J/K/mol
molar heat capacity at constant pressure (203.35 K): 295.39 ± 30 J/K/mol
molar heat capacity at constant pressure (203.56 K): 285.68 ± 29 J/K/mol
molar heat capacity at constant pressure (203.85 K): 280.12 ± 28 J/K/mol
molar heat capacity at constant pressure (204.22 K): 282.02 ± 28 J/K/mol
molar heat capacity at constant pressure (204.66 K): 288.24 ± 29 J/K/mol
molar heat capacity at constant pressure (205.16 K): 293.91 ± 30 J/K/mol
molar heat capacity at constant pressure (205.7 K): 295.33 ± 30 J/K/mol
molar heat capacity at constant pressure (206.26 K): 301.86 ± 31 J/K/mol
molar heat capacity at constant pressure (206.82 K): 315.29 ± 32 J/K/mol
molar heat capacity at constant pressure (207.36 K): 320.59 ± 32 J/K/mol
molar heat capacity at constant pressure (207.9 K): 319.02 ± 32 J/K/mol
molar heat capacity at constant pressure (208.43 K): 317.61 ± 32 J/K/mol
molar heat capacity at constant pressure (208.95 K): 317.22 ± 32 J/K/mol
molar heat capacity at constant pressure (209.48 K): 316.74 ± 32 J/K/mol
molar heat capacity at constant pressure (210.02 K): 313.5 ± 32 J/K/mol
molar heat capacity at constant pressure (210.58 K): 310.53 ± 31 J/K/mol
molar heat capacity at constant pressure (211.15 K): 311.06 ± 31 J/K/mol
molar heat capacity at constant pressure (211.74 K): 311.71 ± 31 J/K/mol
molar heat capacity at constant pressure (212.32 K): 311.41 ± 31 J/K/mol
molar heat capacity at constant pressure (212.92 K): 311.93 ± 32 J/K/mol
molar heat capacity at constant pressure (213.51 K): 313.38 ± 32 J/K/mol
molar heat capacity at constant pressure (214.11 K): 314.64 ± 32 J/K/mol
molar heat capacity at constant pressure (214.7 K): 315.47 ± 32 J/K/mol
molar heat capacity at constant pressure (215.3 K): 316.35 ± 32 J/K/mol
molar heat capacity at constant pressure (215.9 K): 317.1 ± 32 J/K/mol
molar heat capacity at constant pressure (216.5 K): 317.71 ± 32 J/K/mol
molar heat capacity at constant pressure (217.1 K): 318.5 ± 32 J/K/mol
molar heat capacity at constant pressure (217.7 K): 319.34 ± 32 J/K/mol
molar heat capacity at constant pressure (218.3 K): 320.14 ± 32 J/K/mol
molar heat capacity at constant pressure (218.9 K): 320.94 ± 32 J/K/mol
molar heat capacity at constant pressure (219.5 K): 321.78 ± 32 J/K/mol
molar heat capacity at constant pressure (220.1 K): 322.65 ± 33 J/K/mol
molar heat capacity at constant pressure (220.7 K): 323.47 ± 33 J/K/mol
molar heat capacity at constant pressure (221.3 K): 324.32 ± 33 J/K/mol
molar heat capacity at constant pressure (221.9 K): 325.15 ± 33 J/K/mol
molar heat capacity at constant pressure (222.5 K): 325.93 ± 33 J/K/mol
molar heat capacity at constant pressure (223.1 K): 326.77 ± 33 J/K/mol
molar heat capacity at constant pressure (223.7 K): 327.6 ± 33 J/K/mol
molar heat capacity at constant pressure (224.3 K): 328.43 ± 33 J/K/mol
molar heat capacity at constant pressure (224.9 K): 329.26 ± 33 J/K/mol
molar heat capacity at constant pressure (225.5 K): 330.08 ± 33 J/K/mol
molar heat capacity at constant pressure (226.1 K): 330.9 ± 33 J/K/mol
molar heat capacity at constant pressure (226.7 K): 331.78 ± 34 J/K/mol
molar heat capacity at constant pressure (227.3 K): 332.65 ± 34 J/K/mol
molar heat capacity at constant pressure (227.9 K): 333.52 ± 34 J/K/mol
molar heat capacity at constant pressure (228.5 K): 334.39 ± 34 J/K/mol
molar heat capacity at constant pressure (229.1 K): 335.29 ± 34 J/K/mol
molar heat capacity at constant pressure (229.7 K): 336.19 ± 34 J/K/mol
molar heat capacity at constant pressure (230.3 K): 337.06 ± 34 J/K/mol
molar heat capacity at constant pressure (230.9 K): 337.92 ± 34 J/K/mol
molar heat capacity at constant pressure (231.5 K): 338.75 ± 34 J/K/mol
molar heat capacity at constant pressure (232.1 K): 339.57 ± 34 J/K/mol
molar heat capacity at constant pressure (232.7 K): 340.41 ± 34 J/K/mol
molar heat capacity at constant pressure (233.3 K): 341.25 ± 34 J/K/mol
molar heat capacity at constant pressure (233.9 K): 342.13 ± 35 J/K/mol
molar heat capacity at constant pressure (234.5 K): 343.04 ± 35 J/K/mol
molar heat capacity at constant pressure (235.11 K): 343.9 ± 35 J/K/mol
molar heat capacity at constant pressure (235.71 K): 344.83 ± 35 J/K/mol
molar heat capacity at constant pressure (236.31 K): 345.73 ± 35 J/K/mol
molar heat capacity at constant pressure (236.91 K): 346.55 ± 35 J/K/mol
molar heat capacity at constant pressure (237.51 K): 347.39 ± 35 J/K/mol
molar heat capacity at constant pressure (238.11 K): 348.22 ± 35 J/K/mol
molar heat capacity at constant pressure (238.71 K): 348.99 ± 35 J/K/mol
molar heat capacity at constant pressure (239.31 K): 349.79 ± 35 J/K/mol
molar heat capacity at constant pressure (239.91 K): 350.56 ± 35 J/K/mol
molar heat capacity at constant pressure (240.51 K): 351.35 ± 35 J/K/mol
molar heat capacity at constant pressure (241.11 K): 352.21 ± 36 J/K/mol
molar heat capacity at constant pressure (241.71 K): 353.05 ± 36 J/K/mol
molar heat capacity at constant pressure (242.31 K): 353.86 ± 36 J/K/mol
molar heat capacity at constant pressure (242.91 K): 354.74 ± 36 J/K/mol
molar heat capacity at constant pressure (243.51 K): 355.63 ± 36 J/K/mol
molar heat capacity at constant pressure (244.11 K): 356.56 ± 36 J/K/mol
molar heat capacity at constant pressure (244.71 K): 357.47 ± 36 J/K/mol
molar heat capacity at constant pressure (245.31 K): 358.35 ± 36 J/K/mol
molar heat capacity at constant pressure (245.91 K): 359.26 ± 36 J/K/mol
molar heat capacity at constant pressure (246.51 K): 360.13 ± 36 J/K/mol
molar heat capacity at constant pressure (247.11 K): 360.95 ± 36 J/K/mol
molar heat capacity at constant pressure (247.71 K): 361.75 ± 37 J/K/mol
molar heat capacity at constant pressure (248.31 K): 362.5 ± 37 J/K/mol
molar heat capacity at constant pressure (248.91 K): 363.25 ± 37 J/K/mol
molar heat capacity at constant pressure (249.51 K): 363.98 ± 37 J/K/mol
molar heat capacity at constant pressure (250.11 K): 364.75 ± 37 J/K/mol
molar heat capacity at constant pressure (250.71 K): 365.53 ± 37 J/K/mol
molar heat capacity at constant pressure (251.31 K): 366.32 ± 37 J/K/mol
molar heat capacity at constant pressure (251.91 K): 367.13 ± 37 J/K/mol
molar heat capacity at constant pressure (252.51 K): 367.96 ± 37 J/K/mol
molar heat capacity at constant pressure (253.11 K): 368.8 ± 37 J/K/mol
molar heat capacity at constant pressure (253.71 K): 369.64 ± 37 J/K/mol
molar heat capacity at constant pressure (254.31 K): 370.52 ± 37 J/K/mol
molar heat capacity at constant pressure (254.91 K): 371.43 ± 38 J/K/mol
molar heat capacity at constant pressure (255.51 K): 372.34 ± 38 J/K/mol
molar heat capacity at constant pressure (256.11 K): 373.31 ± 38 J/K/mol
molar heat capacity at constant pressure (256.71 K): 374.34 ± 38 J/K/mol
molar heat capacity at constant pressure (257.31 K): 375.35 ± 38 J/K/mol
molar heat capacity at constant pressure (257.91 K): 376.38 ± 38 J/K/mol
molar heat capacity at constant pressure (258.51 K): 377.4 ± 38 J/K/mol
molar heat capacity at constant pressure (259.11 K): 378.39 ± 38 J/K/mol
molar heat capacity at constant pressure (259.71 K): 379.39 ± 38 J/K/mol
molar heat capacity at constant pressure (260.31 K): 380.35 ± 38 J/K/mol
molar heat capacity at constant pressure (260.91 K): 381.29 ± 39 J/K/mol
molar heat capacity at constant pressure (261.51 K): 382.27 ± 39 J/K/mol
molar heat capacity at constant pressure (262.11 K): 383.27 ± 39 J/K/mol
molar heat capacity at constant pressure (262.71 K): 384.28 ± 39 J/K/mol
molar heat capacity at constant pressure (263.31 K): 385.29 ± 39 J/K/mol
molar heat capacity at constant pressure (263.91 K): 386.31 ± 39 J/K/mol
molar heat capacity at constant pressure (264.51 K): 387.3 ± 39 J/K/mol
molar heat capacity at constant pressure (265.11 K): 388.31 ± 39 J/K/mol
molar heat capacity at constant pressure (265.71 K): 389.33 ± 39 J/K/mol
molar heat capacity at constant pressure (266.32 K): 390.32 ± 39 J/K/mol
molar heat capacity at constant pressure (266.92 K): 391.31 ± 40 J/K/mol
molar heat capacity at constant pressure (267.52 K): 392.31 ± 40 J/K/mol
molar heat capacity at constant pressure (268.12 K): 393.27 ± 40 J/K/mol
molar heat capacity at constant pressure (268.72 K): 394.25 ± 40 J/K/mol
molar heat capacity at constant pressure (269.32 K): 395.21 ± 40 J/K/mol
molar heat capacity at constant pressure (269.92 K): 396.11 ± 40 J/K/mol
molar heat capacity at constant pressure (270.52 K): 397.07 ± 40 J/K/mol
molar heat capacity at constant pressure (271.12 K): 398.06 ± 40 J/K/mol
molar heat capacity at constant pressure (271.72 K): 399.04 ± 40 J/K/mol
molar heat capacity at constant pressure (272.32 K): 400.09 ± 40 J/K/mol
molar heat capacity at constant pressure (272.92 K): 401.2 ± 41 J/K/mol
molar heat capacity at constant pressure (273.52 K): 402.31 ± 41 J/K/mol
molar heat capacity at constant pressure (274.12 K): 403.5 ± 41 J/K/mol
molar heat capacity at constant pressure (274.72 K): 404.68 ± 41 J/K/mol
molar heat capacity at constant pressure (275.32 K): 405.86 ± 41 J/K/mol
molar heat capacity at constant pressure (275.92 K): 407.08 ± 41 J/K/mol
molar heat capacity at constant pressure (276.52 K): 408.31 ± 41 J/K/mol
molar heat capacity at constant pressure (277.12 K): 409.49 ± 41 J/K/mol
molar heat capacity at constant pressure (277.72 K): 410.7 ± 41 J/K/mol
molar heat capacity at constant pressure (278.32 K): 411.89 ± 42 J/K/mol
molar heat capacity at constant pressure (278.92 K): 413.04 ± 42 J/K/mol
molar heat capacity at constant pressure (279.52 K): 414.18 ± 42 J/K/mol
molar heat capacity at constant pressure (280.12 K): 415.29 ± 42 J/K/mol
molar heat capacity at constant pressure (280.72 K): 416.38 ± 42 J/K/mol
molar heat capacity at constant pressure (281.32 K): 417.47 ± 42 J/K/mol
molar heat capacity at constant pressure (281.92 K): 418.55 ± 42 J/K/mol
molar heat capacity at constant pressure (282.52 K): 419.65 ± 42 J/K/mol
